Results as given in ChEMBL document CHEMBL3596089, “Synthesis and characterization of novel oxazines and demonstration that they specifically target cyclooxygenase 2” (Bioorg Med Chem Lett, 2015).

Assays:
[1] = target: T1, Prostaglandin G/H synthase 2 (Homo sapiens, UniProt P35354); test: Inhibition of COX2 (unknown origin)
T1 sequence (P35354 whole entry): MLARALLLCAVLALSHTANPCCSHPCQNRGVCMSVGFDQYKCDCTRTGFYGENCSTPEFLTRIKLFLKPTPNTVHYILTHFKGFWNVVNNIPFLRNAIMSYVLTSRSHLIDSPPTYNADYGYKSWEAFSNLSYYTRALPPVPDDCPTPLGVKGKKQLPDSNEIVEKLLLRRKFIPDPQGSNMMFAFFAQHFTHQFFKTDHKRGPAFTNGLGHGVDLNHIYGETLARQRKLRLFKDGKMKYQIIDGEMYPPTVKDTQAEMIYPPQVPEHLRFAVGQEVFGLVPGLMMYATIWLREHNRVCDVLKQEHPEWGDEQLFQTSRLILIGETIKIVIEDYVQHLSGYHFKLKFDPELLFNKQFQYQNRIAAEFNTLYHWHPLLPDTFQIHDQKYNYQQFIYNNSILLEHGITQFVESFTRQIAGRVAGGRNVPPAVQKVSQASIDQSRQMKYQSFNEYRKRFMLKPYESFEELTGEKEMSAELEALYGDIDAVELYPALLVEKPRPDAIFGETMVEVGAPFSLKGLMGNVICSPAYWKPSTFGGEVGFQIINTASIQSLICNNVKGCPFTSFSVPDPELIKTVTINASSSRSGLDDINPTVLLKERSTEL

[2] = target: Prostaglandin G/H synthase 1 (Homo sapiens, UniProt P23219); test: Inhibition of COX1 (unknown origin)
Chain of Prostaglandin G/H synthase 1 (P23219 whole entry): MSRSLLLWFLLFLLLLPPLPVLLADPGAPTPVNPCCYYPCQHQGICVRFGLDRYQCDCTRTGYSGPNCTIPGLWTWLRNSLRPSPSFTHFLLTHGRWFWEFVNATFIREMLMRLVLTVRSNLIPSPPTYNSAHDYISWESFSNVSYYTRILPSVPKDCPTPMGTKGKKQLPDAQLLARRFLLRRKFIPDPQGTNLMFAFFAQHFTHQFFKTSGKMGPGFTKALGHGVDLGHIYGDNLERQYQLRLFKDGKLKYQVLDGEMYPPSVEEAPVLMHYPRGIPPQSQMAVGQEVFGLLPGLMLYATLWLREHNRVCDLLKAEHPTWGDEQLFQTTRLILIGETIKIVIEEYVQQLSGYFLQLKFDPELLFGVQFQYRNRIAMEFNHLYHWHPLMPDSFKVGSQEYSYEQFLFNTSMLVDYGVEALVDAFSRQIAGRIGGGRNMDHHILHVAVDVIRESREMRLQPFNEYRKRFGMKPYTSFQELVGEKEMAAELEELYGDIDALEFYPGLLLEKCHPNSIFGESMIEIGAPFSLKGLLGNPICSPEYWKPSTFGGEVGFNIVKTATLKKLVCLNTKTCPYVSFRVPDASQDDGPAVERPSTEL

IC50 [1]	IC50 [2]	SMILES
1.7 µM	40.4 µM	COc1ccc([C@H]2C(CN3CCN(c4ccc(OC)cc4)CC3)=NO[C@@H]3CCCC[C@H]23)cc1
2.6 µM	50.6 µM	COc1ccc(N2CCN(CC3=NOC(C)(C)CC3c3ccccc3)CC2)cc1 (stereo not given)
1.8 µM	35.8 µM	COc1ccc(N2CCN(CC3=NO[C@@H]4CCCC[C@@H]4[C@H]3c3ccccc3)CC2)cc1
10.5 µM	39.8 µM	CC1(C)CC(c2ccccc2)C(CN2CCC(c3noc4cc(F)ccc34)CC2)=NO1 (stereo not given)
4.7 µM	42.8 µM	Fc1ccc2c(C3CCN(CC4=NO[C@@H]5CCCC[C@@H]5[C@H]4c4ccccc4)CC3)noc2c1
4.1 µM	40.1 µM	CC1(C)CC(c2ccc(Cl)cc2)C(CN2CCC(c3noc4cc(F)ccc34)CC2)=NO1 (stereo not given)
6.8 µM	54.9 µM	CC1(C)CC(c2ccccc2)C(CN2CCN(c3cccc(Cl)c3Cl)CC2)=NO1 (stereo not given)
9.9 µM	59.9 µM	c1ccc([C@H]2C(Cn3c4ccccc4c4ccccc43)=NO[C@@H]3CCCC[C@H]23)cc1
5.9 µM	50.8 µM	COc1ccc([C@H]2C(Cn3c4ccccc4c4ccccc43)=NO[C@@H]3CCCC[C@H]23)cc1
3.9 µM	40.8 µM	CC1(C)CC(c2ccc(Cl)cc2)C(Cn2c3ccccc3c3ccccc32)=NO1 (stereo not given)
